Data as given in the supplement of paper PMC10307832.

Key:
Assay in all cases: relative viability (nuclei count vs DMSO), 5 days (fraction); higher = more cells survive
[1] = compound: CN1CCC(CC1)OC2=CC(=C(C=C2)NC3=NC=C4C(=N3)N(C(=O)N4C)C5CCCC5)OC [AZ3146] + CCNC(=O)c1noc(-c2cc(C(C)C)c(O)cc2O)c1-c1ccc(CN2CCOCC2)cc1 [Luminespib] (partner 0.01 µM)
Summary of the method: (§1)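 Lung cancer cell lines in 1536-well plates were dosed by pin tool the day after seeding, either with one drug alone or with a fixed anchor-drug dose plus five library-drug doses (not always all listed) in √10 steps. After 5 days, cells were fixed and their nuclei stained in one step (final 0.05% Triton X-100, 1% formaldehyde, 1 ug/ml Hoechst), then counted on 4× images. Relative viability is the nuclei count in treated wells divided by that in vehicle wells. Values are medians of duplicate plates.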

[2] = compound: CN1CCC(CC1)OC2=CC(=C(C=C2)NC3=NC=C4C(=N3)N(C(=O)N4C)C5CCCC5)OC [AZ3146] + NC(=O)Nc1cc(-c2cccc(F)c2)sc1C(=O)N[C@H]1CCCNC1 [AZD7762] (partner 0.2 µM)
Summary of the method: as §1

[3] = compound: CCOC(=O)CCNc1cc(N2CCc3ccccc3CC2)nc(-c2ccccn2)n1 [GSK-J4] + COc1cccc2cc(-c3nc([C@H]4CC[C@H](C(=O)O)CC4)n4ncnc(N)c34)[nH]c12 [OSI-027] (partner 0.5 µM)
Summary of the method: as §1

[4] = compound: CN1CCC(CC1)OC2=CC(=C(C=C2)NC3=NC=C4C(=N3)N(C(=O)N4C)C5CCCC5)OC [AZ3146] + CS(=O)(=O)CCNCc1ccc(-c2ccc3ncnc(Nc4ccc(OCc5cccc(F)c5)c(Cl)c4)c3c2)o1 [Lapatinib] (partner 2 µM)
Summary of the method: as §1

Cell Line	relative viability ([1]; first compound 0.08 µM)	relative viability ([1]; first compound 0.253 µM)	relative viability ([1]; first compound 0.8 µM)	relative viability ([1]; first compound 2.53 µM)	relative viability ([1]; first compound 8 µM)	relative viability ([2]; first compound 0.08 µM)	relative viability ([2]; first compound 0.253 µM)	relative viability ([2]; first compound 0.8 µM)	relative viability ([2]; first compound 2.53 µM)	relative viability ([2]; first compound 8 µM)	relative viability ([3]; first compound 0.5 µM)	relative viability ([3]; first compound 1.581 µM)	relative viability ([3]; first compound 5 µM)	relative viability ([3]; first compound 15.81 µM)	relative viability ([3]; first compound 50 µM)	relative viability ([4]; first compound 0.08 µM)	relative viability ([4]; first compound 0.253 µM)	relative viability ([4]; first compound 0.8 µM)	relative viability ([4]; first compound 2.53 µM)	relative viability ([4]; first compound 8 µM)
NCI-H1993	0.86	0.92	0.911	1.06	1.02	0.662	0.695	0.812	1.01	0.581	0.536	0.485	0.646	0.563	0.527	0.896	0.788	0.724	0.853	0.779
NCI-H2085	0.417	0.416	0.394	0.427	0.608	0.912	0.974	0.95	1.04	0.708	0.796	0.66	0.569	0.459	0.515	0.731	0.752	0.7	0.823	0.699
NCI-H2087	0.232	0.182	0.217	0.209	0.199	1.18	1.36	1.22	1.38	1.16	0.552		0.851	0.542	0.421	0.899	1.08	1.08	0.906	1.14
NCI-H2126	0.882	0.942	0.919	0.919	0.767	0.932	1	0.948	1.16	0.998	0.706	0.7	0.949	0.576	0.45	0.691	0.745	0.707	0.818	0.729
NCI-H2170	0.703	0.827	0.755	0.576	0.616	0.85	0.889	0.871	0.814	0.713	0.692	0.696	0.718	0.702	0.524	0.265	0.283	0.252	0.273	0.277
NCI-H2347	0.375	0.298	0.551	0.53	0.644	0.577	0.934	0.649	0.746	0.677	0.449	0.347	0.617		0.338	0.853	0.832	0.939	1.04	1.03
NCI-H2405	0.923	0.704	0.967	0.756	0.914	0.838	0.771	0.702	0.589	0.618	0.682	0.703		0.521	0.556	1.11		0.967	1.31	1.29
NCI-H3122	0.12	0.113	0.108	0.111	0.0978	1.01	0.933	0.966	1.06	0.973	0.88		1.1	0.537	0.674	1.09	1.04	0.952	1	1.02
PC-3 [JPC-3]	0.617	0.741	0.676	0.695	0.715	0.734		0.797	0.813	0.754	0.71	0.65	0.737	0.585	0.732	0.368	0.459	0.419	0.47	0.444
PC-14	0.162	0.169		0.252	0.159	0.343	0.355	0.415	0.382	0.294	0.844	0.759	0.777	0.778	0.694	0.285	0.351	0.279	0.382	0.315
RERF-LC-KJ	1.15	1.2	1.22	1.29	0.668	0.879	0.61	0.883	0.976	0.972	0.582	0.475	0.485	0.473	0.382	0.816	0.889	0.839	0.804	0.84
